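Five concentrations, 48 hours, 96-well plates. Here, GI50 denotes the concentration required for 50% inhibition of growth.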 The source made the active and inactive calls. Cut-off read from the data, not from the text of the source: active = GI50 up to about 1.1 µM and inactive = higher.
Tests used:
Test in all cases: NCI-60 cell line screen, 48 h
[1] = tested on: SK-OV-3
[2] = tested on: U-251
[3] = tested on: M14
[4] = tested on: Malme-3M
[5] = tested on: OVCAR-3
[6] = tested on: CAKI-1
[7] = tested on: SW-620
[8] = tested on: SR
[9] = tested on: SNB-75
[10] = tested on: MOLT-4
[11] = tested on: OVCAR-4
[12] = tested on: SK-MEL-5
[13] = tested on: SF-295
[14] = tested on: SF-539
[15] = tested on: DU-145
[16] = tested on: HCT-15
[17] = tested on: TK-10
[18] = tested on: HOP-62
[19] = tested on: NCI/ADR-RES
[20] = tested on: SF-268
[21] = tested on: UACC-257
[22] = tested on: A549
[23] = tested on: NCI-H23
[24] = tested on: NCI-H226
[25] = tested on: UACC-62
[26] = tested on: SK-MEL-28
[27] = tested on: EKVX
[28] = tested on: 786-0
[29] = tested on: MCF7
[30] = tested on: HL-60
[31] = tested on: MDA-MB-231
[32] = tested on: HT-29
[33] = tested on: CCRF-CEM
[34] = tested on: OVCAR-8
[35] = tested on: OVCAR-5
[36] = tested on: PC-3
[37] = tested on: K562
[38] = tested on: HCT-116
[39] = tested on: LOX IMVI
[40] = tested on: KM12
[41] = tested on: ACHN
[42] = tested on: NCI-H460
[43] = tested on: NCI-H522
[44] = tested on: MDA-MB-435
[45] = tested on: COLO 205
[46] = tested on: BT-549
[47] = tested on: RXF 393
[48] = tested on: HOP-92
[49] = tested on: SNB-19
[50] = tested on: T47D
[51] = tested on: UO-31
[52] = tested on: SN12C
[53] = tested on: SK-MEL-2
[54] = tested on: Hs-578T
[55] = tested on: IGROV-1
[56] = tested on: A498
[57] = tested on: HCC 2998
[58] = tested on: RPMI-8226

COc1cc2c(cc1OCCCCCOc1cc3c(cc1OC)C(=O)N1CCC[C@H]1CN3)N=C[C@@H]1CCCN1C2=O
GI50 [1]: 30.5 µM (inactive)
GI50 [2]: 1.49 µM (inactive)
GI50 [3]: 2.77 µM (inactive)
GI50 [4]: 5.93 µM (inactive)
GI50 [5]: 12.6 µM (inactive)
GI50 [6]: 9.48 µM (inactive)
GI50 [7]: 4.25 µM (inactive)
GI50 [8]: 0.249 µM (active)
GI50 [9]: 15 µM (inactive)
GI50 [10]: 2.4 µM (inactive)
GI50 [11]: 25.6 µM (inactive)
GI50 [12]: 2.79 µM (inactive)
GI50 [13]: 6.14 µM (inactive)
GI50 [14]: 3.18 µM (inactive)
GI50 [15]: 11.1 µM (inactive)
GI50 [16]: 13.7 µM
GI50 [17]: 19.5 µM (inactive)
GI50 [18]: 2.15 µM (inactive)
GI50 [19]: 23.4 µM (inactive)
GI50 [20]: 3.57 µM (inactive)
GI50 [21]: 12.3 µM (inactive)
GI50 [22]: 5.46 µM (inactive)
GI50 [23]: 4.8 µM (inactive)
GI50 [24]: 2.48 µM (inactive)
GI50 [25]: 1.56 µM (inactive)
GI50 [26]: 11.2 µM (inactive)
GI50 [27]: 39.6 µM (inactive)
GI50 [28]: 3.94 µM (inactive)
GI50 [29]: 15.8 µM (inactive)
GI50 [30]: 4.3 µM (inactive)
GI50 [31]: 2.49 µM (inactive)
GI50 [32]: 5.04 µM (inactive)
GI50 [33]: 0.233 µM (active)
GI50 [34]: 2.58 µM (inactive)
GI50 [35]: 16.9 µM (inactive)
GI50 [36]: 10.1 µM (inactive)
GI50 [37]: 3.49 µM (inactive)
GI50 [38]: 4.85 µM (inactive)
GI50 [39]: 1.34 µM (inactive)
GI50 [40]: 2.92 µM (inactive)
GI50 [41]: 4.03 µM (inactive)
GI50 [42]: 3.77 µM (inactive)
GI50 [43]: 1.36 µM (inactive)
GI50 [44]: 6.85 µM (inactive)
GI50 [45]: 4.37 µM (inactive)
GI50 [46]: 2.66 µM (inactive)
GI50 [47]: 17 µM (inactive)
GI50 [48]: 17.2 µM (inactive)
GI50 [49]: 20 µM (inactive)
GI50 [50]: 3.5 µM (inactive)
GI50 [51]: 12.3 µM (inactive)
GI50 [52]: 0.509 µM (active)
GI50 [53]: 3.27 µM (inactive)
GI50 [54]: 6.75 µM (inactive)
GI50 [55]: 3.33 µM (inactive)

O=c1[nH]c2cc(F)c(F)cc2nc1Cc1ccccc1
GI50 [1]: > 100 µM (inactive)
GI50 [2]: > 100 µM (inactive)
GI50 [3]: > 100 µM (inactive)
GI50 [6]: > 100 µM (inactive)
GI50 [7]: > 100 µM (inactive)
GI50 [8]: > 100 µM (inactive)
GI50 [9]: > 100 µM (inactive)
GI50 [10]: 16.1 µM (inactive)
GI50 [11]: > 100 µM (inactive)
GI50 [12]: > 100 µM (inactive)
GI50 [13]: > 100 µM (inactive)
GI50 [14]: > 100 µM (inactive)
GI50 [15]: > 100 µM (inactive)
GI50 [16]: > 100 µM
GI50 [17]: > 100 µM (inactive)
GI50 [18]: > 100 µM (inactive)
GI50 [19]: > 100 µM (inactive)
GI50 [20]: > 100 µM (inactive)
GI50 [21]: > 100 µM (inactive)
GI50 [23]: > 100 µM (inactive)
GI50 [24]: > 100 µM (inactive)
GI50 [25]: > 100 µM (inactive)
GI50 [26]: > 100 µM (inactive)
GI50 [27]: > 100 µM (inactive)
GI50 [28]: > 100 µM (inactive)
GI50 [29]: > 100 µM (inactive)
GI50 [30]: > 100 µM (inactive)
GI50 [31]: > 100 µM (inactive)
GI50 [32]: > 100 µM (inactive)
GI50 [33]: > 100 µM (inactive)
GI50 [34]: > 100 µM (inactive)
GI50 [36]: > 100 µM (inactive)
GI50 [56]: > 100 µM (inactive)
GI50 [37]: 30 µM (inactive)
GI50 [38]: > 100 µM (inactive)
GI50 [39]: > 100 µM (inactive)
GI50 [40]: > 100 µM (inactive)
GI50 [41]: > 100 µM (inactive)
GI50 [42]: > 100 µM (inactive)
GI50 [44]: > 100 µM (inactive)
GI50 [45]: > 100 µM (inactive)
GI50 [46]: > 100 µM (inactive)
GI50 [47]: > 100 µM (inactive)
GI50 [48]: > 100 µM (inactive)
GI50 [49]: > 100 µM (inactive)
GI50 [50]: > 100 µM (inactive)
GI50 [51]: > 100 µM (inactive)
GI50 [53]: > 100 µM (inactive)
GI50 [57]: > 100 µM (inactive)
GI50 [54]: > 100 µM (inactive)
GI50 [55]: > 100 µM (inactive)

O=S1(=O)C(c2ccccc2)=C(O)c2ccccc21
GI50 [2]: > 100 µM (inactive)
GI50 [3]: > 100 µM (inactive)
GI50 [4]: > 100 µM (inactive)
GI50 [5]: > 100 µM (inactive)
GI50 [7]: > 100 µM (inactive)
GI50 [58]: > 100 µM (inactive)
GI50 [9]: > 100 µM (inactive)
GI50 [10]: > 100 µM (inactive)
GI50 [11]: > 100 µM (inactive)
GI50 [12]: > 100 µM (inactive)
GI50 [13]: > 100 µM (inactive)
GI50 [14]: > 100 µM (inactive)
GI50 [15]: > 100 µM (inactive)
GI50 [16]: > 100 µM
GI50 [17]: > 100 µM (inactive)
GI50 [18]: > 100 µM (inactive)
GI50 [19]: > 100 µM (inactive)
GI50 [20]: > 100 µM (inactive)
GI50 [21]: > 100 µM (inactive)
GI50 [22]: > 100 µM (inactive)
GI50 [23]: > 100 µM (inactive)
GI50 [24]: > 100 µM (inactive)
GI50 [25]: > 100 µM (inactive)
GI50 [26]: > 100 µM (inactive)
GI50 [27]: > 100 µM (inactive)
GI50 [28]: > 100 µM (inactive)
GI50 [29]: > 100 µM (inactive)
GI50 [30]: > 100 µM (inactive)
GI50 [31]: 7.91 µM (inactive)
GI50 [32]: > 100 µM (inactive)
GI50 [33]: > 100 µM (inactive)
GI50 [34]: > 100 µM (inactive)
GI50 [35]: > 100 µM (inactive)
GI50 [36]: > 100 µM (inactive)
GI50 [56]: > 100 µM (inactive)
GI50 [37]: > 100 µM (inactive)
GI50 [38]: > 100 µM (inactive)
GI50 [39]: > 100 µM (inactive)
GI50 [40]: > 100 µM (inactive)
GI50 [41]: > 100 µM (inactive)
GI50 [42]: > 100 µM (inactive)
GI50 [43]: > 100 µM (inactive)
GI50 [44]: > 100 µM (inactive)
GI50 [45]: > 100 µM (inactive)
GI50 [46]: > 100 µM (inactive)
GI50 [47]: 35.8 µM (inactive)
GI50 [48]: > 100 µM (inactive)
GI50 [49]: > 100 µM (inactive)
GI50 [50]: > 100 µM (inactive)
GI50 [51]: > 100 µM (inactive)
GI50 [53]: > 100 µM (inactive)
GI50 [57]: > 100 µM (inactive)
GI50 [54]: > 100 µM (inactive)
GI50 [55]: > 100 µM (inactive)

Source: ChEMBL document CHEMBL1201862, “PubChem BioAssay data set” (2004)
